Results from PubChem BioAssay AID330 (DTP/NCI, 2004).
Several values for one entry are separate records, joined by “and”; a condition that tells them apart may be missing. Equal values may be shown once. Toxic doses and inconclusive results are not listed.

Tested on: P388 leukemia ip, CD2F1 mice, survival T/C
Experiment: NCI In Vivo Anticancer Drug Screen. Data for tumor model P388 Leukemia (intraperitoneal) in CD2F1 (CDF1) mice
Details: endpoint: median survival time, higher = longer survival
Summary of the method: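 Mice carrying the transplanted tumor received test compound or vehicle. Survival was recorded in each group, and the value is the treated-group measurement divided by that of the vehicle-treated control group.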

[1] = dose: 50.0 mg/kg/injection, schedule: Q01DX009 (ip), vehicle: saline
[2] = dose: 100.0 mg/kg/injection, schedule: Q01DX009 (ip), vehicle: saline
[3] = dose: 200.0 mg/kg/injection, schedule: Q01DX009 (ip), vehicle: saline
[4] = dose: 50.0 mg/kg/injection, schedule: Q01DX009 (ip), vehicle: Klucel (hydroxypropylcellulose) (HPC)
[5] = dose: 100.0 mg/kg/injection, schedule: Q01DX009 (ip), vehicle: Klucel (hydroxypropylcellulose) (HPC)
[6] = dose: 200.0 mg/kg/injection, schedule: Q01DX009 (ip), vehicle: Klucel (hydroxypropylcellulose) (HPC)
[7] = dose: 50.0 mg/kg/injection, schedule: Q01DX005 (ip), vehicle: Klucel (hydroxypropylcellulose) (HPC)
[8] = dose: 100.0 mg/kg/injection, schedule: Q01DX005 (ip), vehicle: Klucel (hydroxypropylcellulose) (HPC)
[9] = dose: 50.0 mg/kg/injection, schedule: Q01DX005 (ip), vehicle: saline with Tween-80
[10] = dose: 60.0 mg/kg/injection, schedule: Q01DX005 (ip), vehicle: saline with Tween-80
[11] = dose: 120.0 mg/kg/injection, schedule: Q01DX005 (ip), vehicle: saline with Tween-80
[12] = dose: 240.0 mg/kg/injection, schedule: Q01DX005 (ip), vehicle: saline with Tween-80
[13] = dose: 12.5 mg/kg/injection, schedule: Q01DX005 (ip), vehicle: saline with Tween-80
[14] = dose: 25.0 mg/kg/injection, schedule: Q01DX005 (ip), vehicle: saline with Tween-80
[15] = dose: 100.0 mg/kg/injection, schedule: Q01DX001 (ip), vehicle: Klucel (hydroxypropylcellulose) (HPC)
[16] = dose: 200.0 mg/kg/injection, schedule: Q01DX001 (ip), vehicle: Klucel (hydroxypropylcellulose) (HPC)
[17] = dose: 400.0 mg/kg/injection, schedule: Q01DX001 (ip), vehicle: Klucel (hydroxypropylcellulose) (HPC)
[18] = dose: 25.0 mg/kg/injection, schedule: Q01DX005 (ip), vehicle: Klucel (hydroxypropylcellulose) (HPC)

What does the source list for `CCC(c1ccc(OCC(=O)NCCCl)cc1)C(CC)c1ccc(OCC(=O)NCCCl)cc1` (configuration not stated)?
T/C [1]: 97 % of control; T/C [2]: 93 % of control; T/C [3]: 88 % of control

With `O=c1cc(CCc2ccccc2)c2ccccc2[nH]1` as the compound, how does the T/C (dose: 100.0 mg/kg/injection, schedule: Q04DX002 (ip), vehicle: saline with Tween-80) read?
The T/C was 94 % of control.

And the T/C (dose: 200.0 mg/kg/injection, schedule: Q04DX002 (ip), vehicle: saline with Tween-80)?
Its T/C is 94 % of control.

And the T/C (dose: 400.0 mg/kg/injection, schedule: Q04DX002 (ip), vehicle: saline with Tween-80)?
Its T/C is 95 % of control.

How did the T/C (dose: 60.0 mg/kg/injection, schedule: Q01DX005 (ip), vehicle: Klucel (hydroxypropylcellulose) (HPC)) turn out when `CCN(CC)c1ccc(NC(=S)NN)cc1` was run?
The T/C was 100 % of control.

What about the T/C (dose: 120.0 mg/kg/injection, schedule: Q01DX005 (ip), vehicle: Klucel (hydroxypropylcellulose) (HPC)) of the same compound?
The T/C was 97 % of control.

With `CCn1cnc(CC(NC(=O)C(F)(F)F)C(=O)O)c1` (configuration not stated) as the compound, how does the T/C [4] read?
The T/C was 94 % of control.

And the T/C [5]?
Its T/C is 100 % of control.

What about the T/C [6] of the same compound?
Its T/C is 98 % of control.

For `CN1CCC(O)(c2ccccc2)C(Br)C1` (configuration not stated), which T/C (dose: 30.0 mg/kg/injection, schedule: Q01DX005 (ip), vehicle: saline) is on record?
Its T/C is 100 % of control and 106 % of control.

And the T/C (dose: 60.0 mg/kg/injection, schedule: Q01DX005 (ip), vehicle: saline)?
The T/C was 100 % of control and 105 % of control and 110 % of control.

What about the T/C (dose: 120.0 mg/kg/injection, schedule: Q01DX005 (ip), vehicle: saline) of the same compound?
Its T/C is 100 % of control and 116 % of control.

`CC(C)(C)OC(=O)NC(Cc1ccc(O)cc1)C(=O)ON1C(=O)CCC1=O` (configuration not stated) was tested. Which T/C [7] did it give?
The T/C was 100 % of control.

And the T/C [8]?
The T/C was 106 % of control.

And the T/C (dose: 200.0 mg/kg/injection, schedule: Q01DX005 (ip), vehicle: Klucel (hydroxypropylcellulose) (HPC))?
The T/C was 108 % of control.

For `COc1cc(Cc2n[nH]c(=S)[nH]c2=O)cc(OC)c1OC`, which T/C (dose: 100.0 mg/kg/injection, schedule: Q04DX002 (ip), vehicle: Klucel (hydroxypropylcellulose) (HPC)) is on record?
Its T/C is 110 % of control.

And the T/C (dose: 200.0 mg/kg/injection, schedule: Q04DX002 (ip), vehicle: Klucel (hydroxypropylcellulose) (HPC))?
Its T/C is 98 % of control.

And the T/C (dose: 400.0 mg/kg/injection, schedule: Q04DX002 (ip), vehicle: Klucel (hydroxypropylcellulose) (HPC))?
Its T/C is 100 % of control.

For `COC12CC(C)(C)OC1C(C)C1C(CC3(C)C4CC=C5C(C=C(O)C(=O)C5(C)C)C4(C)C(=O)CC13C)O2` (configuration not stated), which T/C (dose: 100.0 mg/kg/injection, schedule: Q04DX002 (ip), vehicle: saline) is on record?
Its T/C is 100 % of control.

What about the T/C (dose: 200.0 mg/kg/injection, schedule: Q04DX002 (ip), vehicle: saline) of the same compound?
Its T/C is 100 % of control.

And the T/C (dose: 400.0 mg/kg/injection, schedule: Q04DX002 (ip), vehicle: saline)?
The T/C was 100 % of control.

For `O=C(O)c1cc(-c2ccc(Cl)cc2)nc2cc(Cl)ccc12`, which T/C [9] is on record?
Its T/C is 98 % of control.

What about the T/C (dose: 100.0 mg/kg/injection, schedule: Q01DX005 (ip), vehicle: saline with Tween-80) of the same compound?
Its T/C is 100 % of control.

For `CCOC(=O)/C(C#N)=C(O)\C(=C\c1ccc(Cl)cc1)NC(=O)c1ccc(NC(C)=O)cc1`, which T/C [10] is on record?
The T/C was 108 % of control.

What about the T/C [11] of the same compound?
The T/C was 97 % of control.

What about the T/C [12] of the same compound?
The T/C was 97 % of control.

For `Cc1ccc(NCCN(C)C)c2c(=O)c3c(O)cccc3sc12`, which T/C (dose: 50.0 mg/kg/injection, schedule: Q01DX009 (ip), vehicle: suspension in saline) is on record?
The T/C was 166 % of control.

For `CC(C)CCCC(C)CCOCCN1CCCCC1` (configuration not stated), which T/C [13] is on record?
The T/C was 100 % of control.

What about the T/C [14] of the same compound?
Its T/C is 113 % of control.

And the T/C [9]?
The T/C was 109 % of control and 114 % of control.

How did the T/C [10] turn out when `COc1cccc(C(c2cc3c(cc2O)OCO3)N2CCOCC2)c1OC` (configuration not stated) was run?
Its T/C is 119 % of control.

What about the T/C [11] of the same compound?
Its T/C is 119 % of control.

What about the T/C [12] of the same compound?
The T/C was 117 % of control.

`O=C1CCCC(Br)c2ccccc21` (configuration not stated) was tested. Which T/C (dose: 100.0 mg/kg/injection, schedule: Q01DX009 (ip), vehicle: distilled water + Tween-80 + alcohol) did it give?
Its T/C is 112 % of control.

And the T/C (dose: 200.0 mg/kg/injection, schedule: Q01DX009 (ip), vehicle: distilled water + Tween-80 + alcohol)?
The T/C was 115 % of control.

And the T/C (dose: 400.0 mg/kg/injection, schedule: Q01DX009 (ip), vehicle: distilled water + Tween-80 + alcohol)?
The T/C was 106 % of control.

With `Cc1ccc2c(c1)nc(N)n2N` as the compound, how does the T/C [15] read?
The T/C was 100 % of control.

What about the T/C [16] of the same compound?
Its T/C is 98 % of control.

And the T/C [17]?
Its T/C is 89 % of control.

`COC(=O)Nc1ccc(C(=O)c2ccccc2)cc1` was tested. Which T/C [1] did it give?
Its T/C is 98 % of control.

What about the T/C [2] of the same compound?
The T/C was 99 % of control.

What about the T/C [3] of the same compound?
Its T/C is 93 % of control.

What does the source list for `COC(=O)C1(O)C(=O)NC2=C1C(=O)c1ccccc1C2=O` (configuration not stated)?
T/C [13]: 99 % of control and 95 % of control; T/C [14]: 98 % of control and 110 % of control; T/C [9]: 105 % of control

Which T/C [18] does the source give for `CCOC(=O)Nc1nc2ccccc2n1CN1CCN(c2ccccc2)CC1` here?
The T/C was 92 % of control.

What about the T/C [7] of the same compound?
The T/C was 95 % of control.

And the T/C [8]?
The T/C was 100 % of control.

With `CN1CCC(O)(c2nccc3ccccc23)CC1` as the compound, how does the T/C (dose: 50.0 mg/kg/injection, schedule: Q01DX001 (ip), vehicle: Klucel (hydroxypropylcellulose) (HPC)) read?
The T/C was 111 % of control.

What about the T/C [15] of the same compound?
Its T/C is 96 % of control.

With `COc1ccc(/C(C#N)=C/c2cccs2)cc1` as the compound, how does the T/C [4] read?
The T/C was 111 % of control.

And the T/C [5]?
The T/C was 102 % of control.

What about the T/C [6] of the same compound?
Its T/C is 104 % of control.

Which T/C (dose: 12.5 mg/kg/injection, schedule: Q01DX005 (ip), vehicle: Klucel (hydroxypropylcellulose) (HPC)) does the source give for `C[C-]=NCCCl.C[C-]=O.[C-]#[O+].[C-]#[O+].[C-]#[O+].[C-]#[O+].[Re]` here?
Its T/C is 102 % of control.

And the T/C [18]?
Its T/C is 89 % of control.

What about the T/C [7] of the same compound?
Its T/C is 93 % of control and 98 % of control.

Which results are given for `Nc1cc(=O)[nH]c(=O)[nH]1`?
T/C (dose: 25.0 mg/kg/injection, schedule: Q01DX009 (ip), vehicle: saline with Tween-80): 99 % of control; T/C (dose: 50.0 mg/kg/injection, schedule: Q01DX009 (ip), vehicle: saline with Tween-80): 100 % of control; T/C (dose: 100.0 mg/kg/injection, schedule: Q01DX009 (ip), vehicle: saline with Tween-80): 100 % of control; T/C (dose: 200.0 mg/kg/injection, schedule: Q01DX009 (ip), vehicle: saline with Tween-80): 98 % of control

`O=C(O)Cc1cn2ccncc2n1` was tested. Which T/C [15] did it give?
Its T/C is 90 % of control.

And the T/C [16]?
Its T/C is 101 % of control.

What about the T/C [17] of the same compound?
The T/C was 101 % of control.

Which results are given for `O=C(Cc1csc2ccccc12)NCC1CC1`?
T/C [10]: 100 % of control; T/C [11]: 99 % of control; T/C [12]: 99 % of control

What does the source list for `COc1cc([C@@H]2c3cc4c(cc3C[C@@H]3COC(=O)[C@H]32)OCO4)cc(OC)c1OC`?
T/C (dose: 12.5 mg/kg/injection, schedule: Q04DX002 (ip), vehicle: saline with Tween-80): 86 % of control; T/C (dose: 25.0 mg/kg/injection, schedule: Q04DX002 (ip), vehicle: saline with Tween-80): 96 % of control; T/C (dose: 50.0 mg/kg/injection, schedule: Q04DX002 (ip), vehicle: saline with Tween-80): 106 % of control

Which results are given for `COc1ccc(Cc2nnc(NN)[nH]c2=O)cc1OC`?
T/C [10]: 101 % of control; T/C [11]: 97 % of control

Which T/C (dose: 9.5 mg/kg/injection, schedule: Q01DX009 (ip), vehicle: saline) does the source give for `CC1OC(OCC2OC(OCCc3ccc(O)c(O)c3)C(O)C(OC3OC(C)C(O)C(O)C3O)C2O)C(O)C(O)C1O` (configuration not stated) (tested in a mixture with another compound) here?
The T/C was 105 % of control.

What about the T/C (dose: 19.0 mg/kg/injection, schedule: Q01DX009 (ip), vehicle: saline) of the same compound?
Its T/C is 103 % of control.

And the T/C (dose: 38.0 mg/kg/injection, schedule: Q01DX009 (ip), vehicle: saline)?
Its T/C is 112 % of control.

And the T/C (dose: 76.0 mg/kg/injection, schedule: Q01DX009 (ip), vehicle: saline)?
Its T/C is 103 % of control.
